Assay results from ChEMBL document CHEMBL1201862, “PubChem BioAssay data set” (2004).
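Dose response: 5 concentrations. Exposure: 48 h. Format: 96-well plates. Endpoint: linear interpolation; highest concentration if not reached. GI50: concentration for 50% inhibition of growth.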 Activity calls are given as the source filed them. Cut-off read from the data, not from the text of the source: active = GI50 up to about 1.1 µM and inactive = higher.

Key:
Experiment in all cases: NCI anticancer screen, dose series, 48 h
786-0 = tested on: 786-0
A498 = tested on: A498
ACHN = tested on: ACHN
CCRF-CEM = tested on: CCRF-CEM
COLO 205 = tested on: COLO 205
DU-145 = tested on: DU-145
HCC 2998 = tested on: HCC 2998
IGROV-1 = tested on: IGROV-1
K562 = tested on: K562
MDA-MB-231 = tested on: MDA-MB-231
MDA-MB-435 = tested on: MDA-MB-435
OVCAR-4 = tested on: OVCAR-4
OVCAR-5 = tested on: OVCAR-5
SN12C = tested on: SN12C
SNB-75 = tested on: SNB-75
T47D = tested on: T47D
U-251 = tested on: U-251
UACC-257 = tested on: UACC-257
UO-31 = tested on: UO-31

Measured: GI50

O=C1CSC2(CC(/C=C/c3ccccc3[N+](=O)[O-])=NN2c2cccc(S(=O)(=O)O)c2)N1c1nc2ccccc2s1 (centres undefined)
inactive: 786-0 12.3 µM | A498 18.2 µM | ACHN 17.1 µM | CCRF-CEM 17.9 µM | COLO 205 33.1 µM | DU-145 12.5 µM | HCC 2998 30.3 µM | IGROV-1 15.3 µM | K562 19.5 µM | MDA-MB-231 15.9 µM | MDA-MB-435 14.8 µM | OVCAR-4 15.3 µM | OVCAR-5 19.3 µM | SN12C 20.3 µM | SNB-75 15.3 µM | T47D 12.8 µM | U-251 14.5 µM | UACC-257 37.2 µM | UO-31 14.2 µM

CC(C)(C)OC(=O)N(O)CCCn1cnc2c(N)ncnc21
inactive: 786-0 > 100 µM | A498 > 100 µM | ACHN > 100 µM | CCRF-CEM > 100 µM | COLO 205 > 100 µM | DU-145 > 100 µM | HCC 2998 > 100 µM | IGROV-1 > 100 µM | K562 > 100 µM | MDA-MB-231 > 100 µM | MDA-MB-435 > 100 µM | OVCAR-4 > 100 µM | OVCAR-5 > 100 µM | SN12C > 100 µM | SNB-75 > 100 µM | T47D > 100 µM | U-251 > 100 µM | UACC-257 > 100 µM | UO-31 > 100 µM

Cc1ccc(S(=O)(=O)N2CCN(S(=O)(=O)c3ccc(C)cc3)CCN(S(=O)(=O)c3ccc(C)cc3)Cc3cc(Br)c(Br)cc3CN(S(=O)(=O)c3ccc(C)cc3)CC2)cc1
inactive: 786-0 > 100 µM | A498 > 100 µM | ACHN > 100 µM | CCRF-CEM > 100 µM | COLO 205 > 100 µM | DU-145 > 100 µM | HCC 2998 > 100 µM | IGROV-1 85.5 µM | K562 > 100 µM | MDA-MB-231 23.3 µM | MDA-MB-435 > 100 µM | OVCAR-4 44.1 µM | OVCAR-5 92.3 µM | SN12C > 100 µM | SNB-75 55.6 µM | T47D > 100 µM | U-251 82 µM | UACC-257 37.2 µM | UO-31 > 100 µM

COc1ccc(/N=N/c2ccc3oc(=O)c(C(=O)Nc4ccc(Cl)cc4)cc3c2)cc1
inactive: 786-0 > 10 µM | A498 > 10 µM | ACHN > 10 µM | COLO 205 > 10 µM | DU-145 > 10 µM | HCC 2998 > 10 µM | IGROV-1 3.52 µM | MDA-MB-231 6.25 µM | MDA-MB-435 > 10 µM | OVCAR-4 > 10 µM | OVCAR-5 > 10 µM | SN12C > 10 µM | SNB-75 > 10 µM | T47D 6.76 µM | U-251 5.4 µM | UACC-257 > 10 µM | UO-31 2.24 µM

CC(=O)OC[C@@H](OC(C)=O)[C@H](OC(C)=O)[C@@H]1OC(C)(C)O[C@@H]1C1SCCCS1
inactive: 786-0 > 100 µM | A498 > 100 µM | ACHN > 100 µM | CCRF-CEM > 100 µM | COLO 205 > 100 µM | DU-145 > 100 µM | HCC 2998 > 100 µM | K562 > 100 µM | MDA-MB-231 > 100 µM | MDA-MB-435 > 100 µM | OVCAR-4 > 100 µM | OVCAR-5 > 100 µM | SNB-75 > 100 µM | T47D > 100 µM | U-251 > 100 µM | UACC-257 > 100 µM | UO-31 > 100 µM

OC(C/C(=N\N=C(/CC(O)(C(F)(F)F)C(F)(F)F)c1ccccc1)c1ccccc1)(C(F)(F)F)C(F)(F)F
inactive: 786-0 > 10 µM | A498 > 10 µM | ACHN > 10 µM | CCRF-CEM > 10 µM | COLO 205 > 10 µM | DU-145 > 10 µM | HCC 2998 > 10 µM | IGROV-1 > 10 µM | K562 > 10 µM | MDA-MB-231 > 10 µM | MDA-MB-435 > 10 µM | OVCAR-4 > 10 µM | OVCAR-5 > 10 µM | SN12C > 10 µM | SNB-75 > 10 µM | T47D > 10 µM | U-251 > 10 µM | UACC-257 > 10 µM
